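Method: 48-hour compound exposure of cells in 96-well plates, five concentrations, linear interpolation of endpoints. GI50 is the concentration that inhibits growth by half. TGI is the concentration that stops growth completely.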 *1 amine or outer side, *2 acyl side, *3 side chain or, on linkers, in order; H or OH if unused. Where a SMILES comes first, the peptide text is derived from it. Bridges are numbered along the chain shown (N, C = ends). [ ]: non-standard residue; d: D form. ξ: configuration not given here. X35 = CC[C@H](C)[C@@H](N[*:1])[C@@H](O)CC(=O)O[C@H](C(=O)[C@H](C)C(=O)[*:2])C(C)C; NMeY = CN[C@@H](Cc1ccc(O)cc1)C(=O)O; dNMeL = CN[C@H](CC(C)C)C(=O)O; ξΔPro = O=C(O)C1C=CCN1
Tests used:
Assay in all cases: NCI tumour cell line growth inhibition, 48 h
BT-549 breast = system: BT-549 breast
UACC-257 melanoma = system: UACC-257 melanoma
SF-539 CNS = system: SF-539 CNS
MCF7 breast = system: MCF7 breast
OVCAR-3 ovarian = system: OVCAR-3 ovarian
PC-3 prostate = system: PC-3 prostate
OVCAR-4 ovarian = system: OVCAR-4 ovarian
HT29 colon = system: HT29 colon
NCI-H460 lung = system: NCI-H460 lung
SN12C renal = system: SN12C renal

SMILES | TGI (BT-549 breast) [µM] | TGI (UACC-257 melanoma) [µM] | TGI (SF-539 CNS) [µM] | TGI (MCF7 breast) [µM] | TGI (OVCAR-3 ovarian) [µM] | TGI (PC-3 prostate) [µM] | TGI (OVCAR-4 ovarian) [µM] | TGI (HT29 colon) [µM] | TGI (NCI-H460 lung) [µM] | TGI (SN12C renal) [µM] | GI50 (UACC-257 melanoma) [µM] | GI50 (SN12C renal) [µM] | GI50 (SF-539 CNS) [µM] | GI50 (MCF7 breast) [µM] | GI50 (OVCAR-3 ovarian) [µM] | GI50 (OVCAR-4 ovarian) [µM] | GI50 (HT29 colon) [µM] | GI50 (NCI-H460 lung) [µM]
COC(=O)[C@](C)(Cc1ccccc1)NC(=O)[C@@H](C)N1[C@@H](c2ccccc2)COC1(C)C | > 100 | > 100 | > 100 | > 100 | > 100 | > 100 | > 100 | > 100 | > 100 | – | – | – | – | – | – | – | – | –
Cc1nc2cccc(F)c2c(=O)n1-c1nnc(C(F)(F)F)s1 | – | > 10 | > 10 | > 10 | > 10 | > 10 | > 10 | > 10 | > 10 | > 10 | – | – | – | – | – | – | – | –
C=CC(OC(C)=O)c1ccc(OC(C)=O)cc1 (stereo not drawn) | 23.9 | 16 | 4.78 | 26.5 | 16.4 | 7.82 | 37.5 | 32.7 | 37.1 | – | – | – | – | – | – | – | – | –
COc1cc2oc(=O)cc(C)c2cc1OC | – | > 100 | > 100 | > 100 | > 100 | > 100 | > 100 | > 100 | – | > 100 | – | – | – | – | – | – | – | –
CS(=O)(=O)[O-].CS(=O)(=O)[O-].NC1CCCCC1N.[Pt+4] (stereo not drawn) | – | > 100 | > 100 | > 100 | > 100 | – | > 100 | > 100 | > 100 | > 100 | > 100 | > 84.7 | > 100 | 66.3 | > 100 | > 100 | 62.3 | 47.2
Cc1nc2c(n1-c1ccccc1)C(=O)c1ccccc1C2=O | – | 51.5 | > 100 | – | 54.1 | – | > 100 | > 100 | > 100 | > 100 | – | – | – | – | – | – | – | –
NC(=S)NNC(=S)NC(=O)c1ccco1 | – | > 10 | – | – | > 10 | – | > 10 | > 10 | > 10 | > 10 | – | – | – | – | – | – | – | –
O=c1oc2cccnc2n1CCCCN1CCN(c2ccccc2)CC1 | – | > 100 | > 100 | > 100 | > 100 | > 100 | > 100 | > 100 | > 100 | – | – | – | – | – | – | – | – | –
CCOC(=O)CCC(NC(=O)OCc1ccccc1)C(=O)NC(CCC(=O)OCC)C(=O)NC(CCC(=O)OCC)C(=O)NNC(=O)OC(C)(C)C (stereo not drawn) | > 100 | > 100 | – | > 100 | – | > 100 | – | > 100 | > 100 | > 100 | – | – | – | – | – | – | – | –
O=c1c2cc(Br)ccc2ncn1COCc1ccccc1 | – | > 100 | > 100 | > 100 | > 100 | – | > 100 | > 1 | – | – | – | – | – | – | – | – | – | –
C=C(CCOC)CCC1CCCCC(=C)[C@H]1O (stereo partly drawn) | – | > 100 | – | > 100 | > 100 | > 100 | > 100 | > 100 | > 100 | > 100 | – | – | – | – | – | – | – | –
C[C@]12CCC(=O)C=C1CC[C@@H]1[C@@H]2[C@@H](O)C[C@@]2(C)[C@H]1CC[C@]2(O)C(=O)COC(=O)CCC1CCCC1 | – | > 100 | > 100 | – | > 100 | – | – | > 100 | > 100 | > 100 | – | – | – | – | – | – | – | –
NNC(=O)Cn1ccnn1 | > 100 | > 100 | – | > 100 | – | > 100 | – | > 100 | > 100 | > 100 | – | – | – | – | – | – | – | –
N#Cc1c(N2CCN(c3ccc([N+](=O)[O-])cc3)CC2)[n+](=O)c2ccc(-c3ccc([N+](=O)[O-])cc3)cc2n1[O-] | > 100 | > 100 | > 100 | > 100 | > 77.2 | > 100 | > 100 | > 100 | > 38.3 | – | – | – | – | – | – | – | – | –
N#C/C(C(=O)Nc1ccccc1)=C(/N)N1CCCCC1 | > 100 | > 100 | > 100 | > 100 | > 100 | > 100 | – | > 100 | > 100 | > 100 | – | – | – | – | – | – | – | –
COc1ccc2c(c1)C(=O)C1CCC(=O)N1C2c1ccc2c(c1)OCO2 (stereo not drawn) | 11.6 | 40.4 | 42.7 | – | 15.3 | 29.5 | 47.9 | 16.9 | 64.4 | 24.4 | – | – | – | – | – | – | – | –
O=c1c(O)cccn1C1OC(CO)C(O)C1O (stereo not drawn) | – | > 100 | – | – | – | – | > 100 | > 100 | > 100 | > 100 | – | – | – | – | – | – | – | –
COc1ccc(NC(=O)CC(=O)N2N=C(N(c3ccccc3)c3ccccc3)CC2c2ccccc2)cc1 (stereo not drawn) | – | > 100 | > 100 | > 100 | > 100 | > 100 | > 100 | > 100 | – | > 100 | – | – | – | – | – | – | – | –

SMILES | TGI (BT-549 breast) [µM] | TGI (UACC-257 melanoma) [µM] | TGI (SF-539 CNS) [µM] | TGI (MCF7 breast) [µM] | TGI (OVCAR-3 ovarian) [µM] | TGI (PC-3 prostate) [µM] | TGI (OVCAR-4 ovarian) [µM] | TGI (HT29 colon) [µM] | TGI (NCI-H460 lung) [µM] | TGI (SN12C renal) [µM] | GI50 (UACC-257 melanoma) [µM] | GI50 (SN12C renal) [µM] | GI50 (SF-539 CNS) [µM] | GI50 (MCF7 breast) [µM] | GI50 (OVCAR-3 ovarian) [µM] | GI50 (OVCAR-4 ovarian) [µM] | GI50 (HT29 colon) [µM] | GI50 (NCI-H460 lung) [µM]
CC(=O)Nc1ccc(/C=C2/NC(=S)N(/C=C3\C(=O)Oc4ccccc4C3=O)C2=O)cc1 | – | > 100 | > 100 | > 100 | > 100 | > 100 | > 100 | > 100 | > 100 | > 100 | – | – | – | – | – | – | – | –
CC1(C)C=[N+]([O-])C(C)(C)N1O | > 10 | > 10 | – | > 10 | > 10 | > 10 | > 10 | > 10 | > 10 | > 10 | – | – | – | – | – | – | – | –
COc1cccc(C23CCCC(C2)N(C)CC3OC(=O)c2ccccc2)c1OC (stereo not drawn) | 44.9 | > 100 | > 100 | > 100 | > 100 | 81.8 | > 100 | 43.3 | > 100 | – | – | – | – | – | – | – | – | –
CC[C@H](C)[C@H]1NC(=O)[C@@H](NC(=O)[C@@H](CC(C)C)N(C)C(=O)C2C=CCN2)[C@@H](C)OC(=O)[C@H](Cc2ccc(OC)cc2)N(C)C(=O)[C@@H]2CCCN2C(=O)[C@H](CC(C)C)NC(=O)[C@@H](C)C(=O)[C@H](C(C)C)OC(=O)C[C@@H]1O (stereo partly drawn) (H-[ξΔPro][dNMeL]T[X35]LP[NMeY](Me); ester 3-C) | 0.345 | 0.239 | – | 0.423 | – | 1.06 | < 0.005 | < 0.005 | 0.114 | > 50 | – | – | – | – | – | – | – | –
N#C/C(=C1/c2cc([N+](=O)[O-])ccc2-c2c1cc([N+](=O)[O-])cc2[N+](=O)[O-])N1CCCCC1 | > 100 | > 100 | – | > 100 | > 100 | > 100 | 69.7 | > 100 | – | > 100 | – | – | – | – | – | – | – | –
COC(=O)[C@@]1(C)CCC[C@]2(C(=O)O)C3Cc4occc4[C@H](C)[C@@H]3CCC21 (stereo partly drawn) | > 100 | – | > 100 | – | > 100 | 96.9 | – | 91.8 | > 100 | > 100 | – | – | – | – | – | – | – | –
CCOC(=O)c1c(N)sc2c1C(C(=O)OCC)CCC2 (stereo not drawn) | > 100 | > 100 | – | > 100 | – | > 100 | – | > 100 | > 100 | > 100 | – | – | – | – | – | – | – | –
Cn1c2ccc(C3=NCCN3)cc2c2cc(C3=NCCN3)ccc21 | > 100 | > 100 | > 100 | – | > 100 | > 100 | > 100 | > 100 | 25.9 | > 100 | – | – | – | – | – | – | – | –
O=c1nc2ccc3sc4ccccc4c(=O)c3n2c(=O)[nH]1 | – | > 100 | > 100 | > 100 | > 100 | > 100 | > 100 | > 100 | > 100 | > 100 | – | – | – | – | – | – | – | –
O=[N+]([O-])c1ccc2c(c1)n1c(N3CCCC3)[n+]3ccccc3c1c1c3cccc[n+]3c(N3CCCC3)n21 | > 100 | > 100 | > 100 | > 100 | > 100 | > 100 | > 100 | – | > 100 | > 100 | – | – | – | – | – | – | – | –
O=P(O)(O)C=C=C1CCCCC1 | – | > 100 | > 100 | > 100 | > 100 | > 100 | > 100 | > 100 | > 100 | > 100 | – | – | – | – | – | – | – | –
O=C(O)CCSC1=NCCN1 | > 100 | > 100 | – | > 100 | > 100 | > 100 | > 100 | > 100 | > 100 | > 100 | – | – | – | – | – | – | – | –
COc1cc(CNC(=S)CCCCCCCCCCC(C)C)ccc1O | – | > 100 | > 100 | > 100 | – | – | > 100 | > 100 | > 100 | > 100 | – | – | – | – | – | – | – | –
CC(C)(CN1CCCCC1)C(/C=C/c1ccccc1)=N\NC(=O)N/N=C(/C=C/c1ccccc1)C(C)(C)CN1CCCCC1 | 3.23 | 3.1 | – | 3.53 | 6.82 | 7.7 | 14.1 | 2.53 | 2.67 | 4.03 | – | – | – | – | – | – | – | –
COc1ccccc1NC(=S)N/N=C/c1ccccn1 | 77 | 0.416 | 5.07 | > 100 | – | > 46.4 | > 100 | > 31.6 | 6.12 | 5.15 | – | – | – | – | – | – | – | –
Cc1nc(Nc2nc3ccccc3[nH]2)nc(Cl)c1CCCl | > 100 | > 100 | > 100 | – | – | > 100 | > 100 | > 100 | > 100 | > 100 | – | – | – | – | – | – | – | –
COc1cc2oc(=O)cc(C)c2c(OC)c1OC(C)=O | – | > 100 | – | > 100 | > 100 | > 100 | > 100 | > 100 | – | > 100 | – | – | – | – | – | – | – | –

From PubChem BioAssay (NCI)
